The series in a line: Bulk density, tapped density and Carr Index (flowability) of powders and granules. Format: physicochemical. As to conditions: for Carr Index: 100×(1−BD/TD), greater than 25 indicates poor flowability. On the procedure:
The Carr Index is calculated by the formula 100×(1−BD/TD) and is used as an indication of the flowability.

Counter-ions that a name gives are not always drawn.

`COc1ccc2cc([C@H](C)C(=O)O)ccc2c1` [Naproxen Sodium, naproxen sodium]: under “appearance of powder”, the Description entry was “very lumpy”. In addition, the flowability result (in words, from Carr Index) was “poor flowability”.
Regarding `Cc1ncc(CO)c(CO)c1O.Cl` [Pyridoxine Hydrochloride, pyridoxine hydrochloride], the “BD (bulk density)” value worked out at 0.44 g/mL, the “TD (tapped density)” value worked out at 0.62 g/mL and the “Carr Index” value is reported as 30.
With `Cc1ncc(C[n+]2csc(CCO)c2C)c(N)n1` [Thiamine hydrochloride, thiamine hydrochloride], the “BD (bulk density)” value stood at 0.26 g/mL, the “TD (tapped density)” value is 0.46 g/mL and the “Carr Index” value is on record as 44.
